The values below come from publication PMC7708037, “Targeting OGG1 arrests cancer cell proliferation by inducing replication stress” (Nucleic Acids Research, 2020).

The subject of this assay is primary blood cells (CD34+ cells, CD34- fraction from cord blood, PBMCs). Description: Resazurin viability of primary blood cells. It is filed as cell-based, human. The method, then:
Cells were seeded in 96- or 384-well plates and incubated for 3 days for combination experiments or 5 days for single-drug exposure experiments. Resazurin (R7017, SigmaAldrich) was added to a final concentration of 0.01 mg/ml resazurin and fluorescence was measured at ex530/em590 after incubation for 2, 4 or 6 h. Curves were fitted using XLfit software (IDBS) or Prism 8.0 (Graphpad Software), and EC50 values were determined.
Peripheral blood mononuclear Cells (PBMC) were isolated from peripheral whole blood from controls using Histopaque®-1077 (Sigma-Aldrich, San Luis, MO, USA) following the manufacturer's instructions. Briefly, peripheral blood was collected in heparin and diluted with equal amount of PBS. Next, blood was centrifuged with Histopaque®-1077 at 400 × g for 30 min at room temperature and the PBMC layer was recovered. All steps were processed within 4 h after blood extraction.
Isolation of total CD34+ cells was performed from umbilical cord blood samples (CB) from healthy donors distributed from Centro de Transfusión de la Comunidad de Madrid. All samples were collected under written consent and institutional review board agreement. CD34+ cells was obtained from mononuclear cells were separated by fractionation in Ficoll-hypaque according to manufacturer's recommendations (GE Healthcare). […]
Background: Resazurin is reduced to fluorescent resorufin, in cell work by metabolically active cells.

By EC50 is commonly meant the concentration giving half of the maximal effect. With `O=C(Nc1ccc(I)cc1)N1CCC(n2c(=O)[nH]c3c(Br)cccc32)CC1` [TH5487], the “Tolerance by hematopoietic primary cells” value (CD34+ cells, resting and activated CD34- cells from umbilical cord blood, healthy donors) was “well tolerated”. For the setting “primary blood cells from healthy donors, activated or not, read-out: EC50, average over primary blood cells”, the EC50 stood at 35.1 ± 20 µM.
